{"source": "patent US20170320939A1", "about": "“COLL2-1 PEPTIDE AND ITS NITRATED FORM AS THERAPEUTIC TARGETS FOR OSTEOARTHRITIS TREATMENT” (Université de Liège, priority 2014, published 2017)", "key": {"female Lewis rats [1]": {"tested_on": "female Lewis rats", "assay": "In-vivo study, S.C. injection compared to CIA (collagen induced arthritis) model", "conditions": "for arthritis visual score, difference versus saline (Group 7): D17", "protocol": "(§1) An in-vivo study was performed to evaluate the potential immunizing effect of Coll2-1 peptide. This effect was evaluated in comparison with two validated models of rheumatoid arthritis: CIA (Collagen induced arthritis) and SCW (Streptococcal cell walls). The peptide has been injected once subcutaneous, at the base of the tail (S.C.—evaluation of systemic inflammation) or intra-articular (I.A.—evaluation of mono-articular inflammation) in female Lewis rats. Naïve controls (saline) were considered. Animals were euthanized 21 or 28 days after injection.\n(§2) All animals (n=108 females; 96.0-129.7 gr) included in the study were identified by a unique chip. They were randomly distributed into 8 study groups (n=16/group except nave controls n=6/group, n=8/each time point) before induction (DO) based on their body weight (FIG. 1). • Injected controls (2 groups) • Group 1: bovin type II collagen (CIA)—S.C. (n=16) • Group 2: streptococcal cell wail (SCW)—I.A. (n=16) • Test groups (4 groups) • Group 3: Peptide dose 200 μg/100 μl—S.C. (n=16) • Group 4: Peptide dose 20 μg/100 μl—S.C. (n=16) • Group 5: Peptide dose 5 μg/50 μl—I.A. (n=16) • Group 6: Peptide dose 0.5 μg/50 μl—I.A. (n=16) • Naïve controls (2 groups) • Group 7: saline S.C. (n=6) • Group 8: saline I.A. (n=6)\n(§3) Two injection ways were chosen to evaluate the potential effect of the peptide: intra-articular (I.A.) and subcutaneous (S.C.), two route classically used in the art.\n(§4) Coll2-1 peptide was administered either I.A. under a 50 μL volume into the right knee or S.C. under a 100 μL volume at the base of the tail.\n(§5) SCW was administered I.A. into the right knee under a 50 μL volume. Bovine type II collagen (CIA) was administered under 100 μL volume at the base of the tail.\n(§6) Two doses of the Coll2-1 peptide were tested in both conditions.\nIt was administered S.C. at 200 and 20 μg under 100 μL.\n(§7) Coll2-1 peptide was administered once (DO).\n(§8) Joint was considered arthritic when significant signs of redness and/or swelling was noted. Each paw was evaluated with a visual score (0-3) • 0: normal, no joint inflammation • 1: large joint inflammation • 2: medium joint inflammation • 3: small joint (distal) inflammation\n(§9) A set of 4 values were recorded on each evaluation day. The 4 values were summed for analysis.\n(§10) Right and left knees diameter were measured using a digital caliper.\n(§11) Animals were euthanized 21 or 28 days after injection (D0). They were anesthetized with a subcutaneous injection of a Ketamin/Medetomidine mix and further euthanized by exsanguination.\n(§12) Both entire knees from each animal were processed for histological analysis, They were decalcified in a HCl/EDTA mix (DC2, Qpath, VWR Belgium) for the appropriate time before inclusion in paraffin. Three frontal sections (5 μm) of each compartment were done 200 μm apart in the weight bearing zone using a microtome. Slides were stained according to a standard Safranin-O/Fast green protocol.\n(§13) Slides were evaluated under a light microscope. Each slide was score for: • Infiltration of inflammatory cells in synovial tissue (0-3) • Inflammatory cells in the joint cavity (exudate) (0-3) • Cartilage proteoglycan depletion (0-3) • Loss of articular cartilage (0-3) • Bone erosion (0-3).\n(§14) Infiltration of inflammatory cells in synovial tissue and inflammatory cells in the joint cavity were considered together (sum of the scores) as inflammatory parameters for the analysis of the detailed criteria.\n(§15) Statistical analysis was performed with the appropriate test using GraphPad. • Visual score and evaluations (knee diameter measurements) were analyzed with a two way ANOVA followed, if positive, by Tukey's multiple comparison test. Graphs represented the mean of each group at each evaluated time point. • Histological scores were analyzed with a Kruskal Wallis for non-parametric values followed, if positive, by a Dunn's multiple comparison test. Graphs presented as box and whisker plots. Exact p values were provided and asterisks representation were also performed."}, "female Lewis rats [2]": {"tested_on": "female Lewis rats", "assay": "In-vivo study, I.A. injection compared to SCW (streptococcal cell walls) model", "conditions": "for global histological score, right knee (injected): not significant", "protocol": "as §1, §2, §3, §4, §5, §6\nIt was administered I.A. at 5 and 0.5 μg under 50 μL\nas §7, §8, §9, §10, §11, §12, §13, §14, §15"}}, "data": [{"sequence": "HRGYPGLDG [Coll2-1]", "values": [{"measurement": "inflammatory criteria (histology)", "setting": "female Lewis rats [1]; Coll2-1 20 μg S.C. (Gr4), 028", "value": "Significant increase"}, {"measurement": "cartilage degradation criteria", "setting": "female Lewis rats [1]; Coll2-1 20 μg S.C. (Gr4), D28", "value": "Significant increase"}, {"measurement": "loss of matrix proteoglycan", "setting": "female Lewis rats [1]; Coll2-1 20 μg S.C. (Gr4), D28", "value": "Significant increase"}, {"measurement": "subchondral bone modification score", "setting": "female Lewis rats [1]; Coll2-1 20 μg S.C. (Gr4), D28", "value": "Significant increase"}, {"measurement": "arthritis visual score, difference versus bovine type II collagen (Group 1)", "setting": "female Lewis rats [1]; Coll2-1 20 μg S.C. (Group 4), D21", "value": "statistically different"}, {"measurement": "global histological score, right and left knees together, versus saline (Group 7)", "setting": "female Lewis rats [1]; Coll2-1 20 μg S.C. (Group 4), D28", "value": "significant increase"}, {"measurement": "arthritis visual score, difference versus saline (Group 7)", "setting": "female Lewis rats [1]; Coll2-1 20 μg/100 μl S.C. (Group 4)", "value": "statistically significant"}, {"measurement": "inflammatory criteria (histology)", "setting": "female Lewis rats [1]; Coll2-1 200 μg S.C. (Gr3), D21", "value": "Significant increase"}, {"measurement": "subchondral bone modification score", "setting": "female Lewis rats [1]; Coll2-1 200 μg S.C. (Gr3), D21", "value": "Significant increase"}, {"measurement": "cartilage degradation criteria", "setting": "female Lewis rats [1]; Coll2-1 200 μg S.C. (Gr3), D28", "value": "Significant increase"}, {"measurement": "loss of matrix proteoglycan", "setting": "female Lewis rats [1]; Coll2-1 200 μg S.C. (Gr3), D28", "value": "Significant increase"}, {"measurement": "global histological score, right and left knees together, versus saline (Group 7)", "setting": "female Lewis rats [1]; Coll2-1 200 μg S.C. (Group 3), D21", "value": "significant increase"}, {"measurement": "arthritis visual score, difference versus saline (Group 7)", "setting": "female Lewis rats [1]; Coll2-1 200 μg/100 μl S.C. (Group 3)", "value": "statistically significant"}, {"measurement": "histological score (conclusion)", "setting": "female Lewis rats [1]; collagen arthritis model, S.C. injection", "value": "increase"}, {"measurement": "arthritis visual score", "setting": "female Lewis rats [1]; single S.C. injection at the base of the tail, four limbs, D0 to D28", "value": "induced an increase"}, {"measurement": "cartilage degradation score, left knee", "setting": "female Lewis rats [2]; Coll2-1 0.5 μg I.A. (Gr6)", "value": "significant increase"}, {"measurement": "inflammatory score, left knee, versus Gr8", "setting": "female Lewis rats [2]; Coll2-1 0.5 μg I.A. (Gr6)", "value": "significant increase"}, {"measurement": "matrix proteoglycan loss score, left knee, versus Gr8", "setting": "female Lewis rats [2]; Coll2-1 0.5 μg I.A. (Gr6)", "value": "significant increase"}, {"measurement": "right knee diameter, difference versus Gr8 (saline)", "setting": "female Lewis rats [2]; Coll2-1 0.5 μg I.A. (Gr6), D3", "value": "statistically different"}, {"measurement": "arthritis visual score, difference versus saline (Gr8)", "setting": "female Lewis rats [2]; Coll2-1 0.5 μg I.A. (Gr6), D28", "value": "statistically different"}, {"measurement": "cartilage degradation score, right knee, versus Gr8", "setting": "female Lewis rats [2]; Coll2-1 0.5 μg I.A. (Gr6), D28", "value": "significant increase"}, {"measurement": "global histological score, left knee, difference versus Gr2", "setting": "female Lewis rats [2]; Coll2-1 0.5 μg I.A. (Gr6), D28", "value": "not significant except for Gr6"}, {"measurement": "global histological score, left knee, difference versus Gr8", "setting": "female Lewis rats [2]; Coll2-1 0.5 μg I.A. (Gr6), D28", "value": "not significant except for Gr6"}, {"measurement": "global histological score, right knee (injected)", "setting": "female Lewis rats [2]; Coll2-1 0.5 μg I.A. (Gr6)", "value": "intermediate between Gr8 (saline) and Gr2 (SCW)"}, {"measurement": "global histological score, left knee, differences", "setting": "female Lewis rats [2]; Coll2-1 5 μg I.A. (Gr5)", "value": "not significant"}, {"measurement": "arthritis visual score, difference versus Gr 6 (Coll2-1 peptide 0.5 μg)", "setting": "female Lewis rats [2]; Coll2-1 5 μg I.A. (Gr5), D17", "value": "statistically different"}, {"measurement": "arthritis visual score, difference versus saline (Gr8)", "setting": "female Lewis rats [2]; Coll2-1 5 μg I.A. (Gr5), D17", "value": "statistically different"}, {"measurement": "left knee diameter, difference versus Gr2 (SCW)", "setting": "female Lewis rats [2]; Coll2-1 5 μg I.A. (Gr5), D17", "value": "statistically different"}, {"measurement": "left knee diameter, difference versus Gr8 (saline)", "setting": "female Lewis rats [2]; Coll2-1 5 μg I.A. (Gr5), D17", "value": "statistically different"}, {"measurement": "right knee diameter, difference versus Gr8 (saline)", "setting": "female Lewis rats [2]; Coll2-1 5 μg I.A. (Gr5), D17", "value": "statistically significance"}, {"measurement": "arthritis visual score, difference versus SCW (Gr2)", "setting": "female Lewis rats [2]; Coll2-1 5 μg I.A. (Gr5), D24", "value": "statistically different"}, {"measurement": "global histological score, right knee (injected)", "setting": "female Lewis rats [2]; Coll2-1 5 μg I.A. (Gr5)", "value": "intermediate between Gr8 (saline) and Gr2 (SCW)"}, {"measurement": "right knee diameter, difference Gr5 versus Gr6", "setting": "female Lewis rats [2]; Coll2-1 5 μg versus 0.5 μg I.A., D17", "value": "statistically different"}, {"measurement": "inflammatory criteria, right knee", "setting": "female Lewis rats [2]; Coll2-1 peptide I.A., D28, not statistically significant", "value": "intermediate increase"}, {"measurement": "histological score (conclusion)", "setting": "female Lewis rats [2]; SCW arthritis model, I.A. injection, D21 and D28", "value": "intermediate scores"}, {"measurement": "arthritis visual score", "setting": "female Lewis rats [2]; single I.A. injection into the right knee, D0 to D28", "value": "induced an increase"}]}]}
